The record followed here is a melting point compilation (Tetko et al.; mined from patent text by program, amines drawn as free bases though some values may be those of a salt).

In the case of `N#Cc1cnn2c1N(C(=O)CN1CCN(Cc3ccccc3C(F)(F)F)CC1)CC=C2c1cccc(C(F)(F)F)c1`, the melting point (in general, the temperature, or range, at which the solid turns liquid) fell in the range of 169 to 171 °C.
The value for `CC1(C)OC(c2ccc(Cl)cc2Cl)C(Cn2cncn2)(c2ccc(Cl)cc2)O1` (centres undefined) was 141 to 142 °C; that for `CON=C(C(=O)NC1C(=O)N2C(C(=O)O)=C(CSc3nnnn3C)SCC12)c1csc(N)n1` (centres undefined) was 180 °C.
The value for `N#Cc1ccc(COC2COc3nc([N+](=O)[O-])cn3C2)cc1` (centres undefined) was 166 to 167 °C.
The value for `Fc1ccc2c(-c3ccncc3)noc2c1` was 138 to 146 °C; that for `Cc1ccc(C(=O)c2cccc(C(=O)O)c2)c(O)c1` was 198 to 215 °C.
In the case of `CC(=O)SCC(Cc1ccccc1)C(=O)Nc1cccc(C(=O)O)c1` (centres undefined), the melting point was 169 to 170 °C.
Consider `CC(O)(C(=O)O)c1ccc2c(c1)Cc1ccccc1-2` (centres undefined), for which the melting point was in the range of 164 to 168 °C.
`CCCn1cc(Cc2ccc(C(=O)OC)cc2OC)c2cc(CCC(=O)O)ccc21`: the melting point was in the range of 109 to 111 °C.
As to `COC(=O)C1=C(C)NC(C)=C(C(=O)OCCN2CCC(c3ccccc3)CC2)C1c1cccc([N+](=O)[O-])c1` (centres undefined), the melting point was in the range of 159 to 160 °C.
In turn, `O=c1[nH]c2ncc(-c3cn[nH]c3)nc2n1CC1CCCCC1` displayed a melting point of 246 to 248 °C.
In turn, `CCOc1ccc(S(=O)(=O)N2CCN(C)CC2)cc1C(=O)OC` returned a melting point of 110 to 111 °C.
As for `CCOC(=O)c1c(C)nc2c(cnn2CCCC#N)c1OCC`, the melting point was 99 °C.
`COc1cc(C(=O)O)ccc1Cc1cccc2ccc(NC(=O)CC3CCCC3)cc12` came in with a melting point of 248 to 250 °C.
The value for `CN(C)C(=O)CCc1c(-c2ccccc2)n(C)c(=O)c2ccccc12` was 166 °C.
As for `O=C(NC(Nc1c(Nc2cccnc2)c(=O)c1=O)C(F)(F)C(F)(F)F)c1cccc(Cl)c1` (centres undefined), the melting point fell in the range of 212 to 213 °C.
The value for `CCn1cc(C(=O)O)c(=O)c2ccc(N)cc21` was 304 to 307 °C; that for `CCOC(=O)C1=C(C)Nc2cc[nH]c(=O)c2C1c1ccccc1F` (centres undefined) was 183 to 184 °C.
In turn, `CCCCCCCNC(=O)Oc1ccc2c(c1)CCCN2` gave a melting point of 67 °C.
`COc1nc2c(s1)C(=O)N(C(C)(C)C)C2=O` showed a melting point of 63 to 66 °C.
`O=c1ccn(C2=CCN(Cc3ccc(Br)cc3)C=C2)cc1` yielded a melting point of 166 to 168 °C.
The molecule `CCCC(=O)Oc1ccc2nc(NC(=O)Nc3ccccc3)sc2c1` returned a melting point of 207 to 211 °C.
The value for `N#Cc1nn(-c2c(Cl)cc(C(F)(F)F)cc2Cl)cc1C1CC1(Cl)Cl` (centres undefined) was 123 to 126 °C.
With `COc1cc2c(cc1-c1ccccc1)CCN=C2C1(c2ccccc2Cl)CCC1`, the melting point was in the range of 149 to 152 °C.
The molecule `CN1C(=O)c2ccccc2CC12c1ccccc1C(=O)N2C` (centres undefined) had a melting point of 202 to 203 °C.
The molecule `Oc1ccccc1Oc1ccc(-c2ccsc2)cc1O` yielded a melting point of 114 to 116 °C.
The value for `CCCNc1c(CN)cnc2cn[nH]c12` was 97 to 100 °C.
The value for `N#CC1=C(C2CCN(C(=O)c3ccccc3)CC2)Nc2n[nH]cc2C1c1cccc2nonc12` (centres undefined) was 228 °C; that for `Cc1ccc(S(=O)(=O)N2CCN(S(=O)(=O)c3ccc(C)cc3)CC3=CC=C(CN(S(=O)(=O)c4ccc(C)cc4)CC2)S3)cc1` was 265 to 268 °C.
The value for `Cc1cn(Nc2ccncc2F)c2ccccc12` was 45 °C; that for `CCc1c(C(=O)OC)ncc2[nH]c3cc(OC)c(OC)cc3c12` was 207 to 209 °C; that for `CC1(C)CC(=O)C2=C(C1)NC1=C(C(=O)CC(C)(C)C1)C2c1cccc(-n2ccnc2)c1` was 286 to 288 °C.
On to `O=C1c2cc3ccc4c(c3c(-c3ccc5c(c3)OCO5)c2CN1CCCO)OCO4`, for which the melting point fell in the range of 213 to 215 °C.
The value for `CC(CC(C)(C)C)CP(=O)(O)Cc1cc(C(C)(C)C)c(O)c(C(C)(C)C)c1` (centres undefined) was 108 to 110 °C; that for `CC(=O)NCCCCCC1CCSS1` (centres undefined) was 28 to 33 °C; that for `Cc1nc2ccccc2c2c1OCCN2` was 203 to 204 °C.
As to `CCOC(=O)c1cc(=O)c2ccc(O)cc2o1`, the melting point fell in the range of 221 to 223 °C.
Regarding `Fc1ccc(-n2ccc3cc(-c4cccnc4)ccc32)cc1`, the melting point was in the range of 108 to 110 °C.
The value for `COc1ccccc1N1CCN(C(=O)CCCCN2CC=C(c3c[nH]c4cc(F)ccc34)CC2)CC1` was 78 to 81 °C; that for `CC(=O)Nc1nc(CN2CCN(C(c3ccccc3)c3ccccc3)CC2)c(Cl)s1` was 227 to 230 °C.
The value for `Nc1nc(N)nc(-c2ccc(OCc3ccc(Cl)cc3)cc2)n1` was 246 to 248 °C; that for `C[C@H]1[C@H](c2ccccc2)OC(c2cccc(Br)c2)N1C` (some centres undefined) was 73 to 75 °C; that for `NC(=O)CCC(=O)c1ccccc1` was 122 to 124 °C.
The molecule `CC(C)C(O)(C#Cc1ccsc1)c1cncnc1` (centres undefined) had a melting point of 102 to 105 °C.
Molecule `Oc1ccc2cc(CNCc3ccccc3)ccc2c1` returned a melting point of 120 to 122 °C.
The value for `CN1CCN(c2ccc(Cl)nn2)CC1` was 106 to 107 °C.
Molecule `COc1cccc(N(C)c2nc(NC(=O)C(C)(C)C)nc3[nH]c4ccccc4c23)c1` gave a melting point of 248 to 249 °C.
The value for `CCc1cc2c(ccc(=O)n2Cc2ccc(C(=O)OC)cc2)c(CC)n1` was 128 to 130 °C; that for `C[Si](C)(C)CC(C#N)CC(=O)O` (centres undefined) was 39 to 41 °C; that for `OC(CCCCCOCc1ccccc1)c1cccc(OCc2ccc3ccccc3n2)c1` (centres undefined) was 86 to 89 °C.
In the case of `CCOc1nc(C)c2cc(OC)c(OC)cc2c1C(=O)OC`, the melting point fell in the range of 147 to 149 °C.
On to `Cc1nc2ncnn2c(O)c1F`, for which the melting point amounted to 273 °C.
The molecule `CCc1cc(C(C)(C)C)c(OP2OCC(C)(C)CO2)c(C(C)(C)C)c1CC(=O)O` showed a melting point of 134 to 136 °C.
On to `COc1ccc2c(c1)C(=O)N(c1ccc(C(C)CO)cc1)C2` (centres undefined), for which the melting point fell in the range of 135 to 138 °C.
The value for `C=CCNc1nc(C2C(=O)Nc3ccc(Br)cc32)c2cn(CCC)nc2n1` (centres undefined) was 322 to 326 °C.
In turn, `O=C(c1cc(O)c(O)cc1[N+](=O)[O-])N1CCC(N2CCCCC2)CC1` displayed a melting point of 290 °C.
The value for `Nc1cc([N+](=O)[O-])ccc1OCC(O)CN1C(=O)CCC1=O` (centres undefined) was 200 °C.
The molecule `CC(=O)NCC1CC1c1c(-c2ccccc2)ccc2nn(C)cc12` (centres undefined) displayed a melting point of 156 to 158 °C.
As to `C=C[C@@H](C[C@H](O)[C@H](CC1CCCCC1)NC(=O)[C@H](Cc1c[nH]cn1)NC(=O)[C@@H](CC(=O)N1CCC(C(=O)O)CC1)Cc1ccccc1)C(C)C`, the melting point turned out to be 169 °C.
`COc1ccc2c(c1)C(c1ccncc1)Nc1cc(Cl)ccc1O2` (centres undefined) showed a melting point of 186 to 188 °C.
The value for `CNC(=S)N(C)Cc1cnc(Cl)s1` was 129 to 131 °C; that for `CC1=NC(NC(=O)Nc2cccc(C)c2)C(=O)N(CC(=O)C23CC4CC(CC(C4)C2)C3)c2c(C)cccc21` (centres undefined) was 182 to 184 °C; that for `Oc1ccc(-c2ccc3c(Br)c(O)ccc3c2)cc1` was 208 to 210 °C.
The value for `CCCC(Cc1ccccc1)c1nc2c([nH]1)c(=O)n(CCC)c(=O)n2CCC` (centres undefined) was 158 to 160 °C.
The value for `CN(C)Cc1cc(-c2ccc3c(c2)CCO3)nn(CC2CC2)c1=O` was 109 to 110 °C; that for `Cc1nc2ccccn2c1-c1csc(Nc2ccc(C(=O)NO)cc2)n1` was 188 °C; that for `CC(=O)OCCOc1ccc(C2C(=O)Oc3c2cc(C(C)(C)C)cc3C(C)(C)C)cc1` (centres undefined) was 75 to 78 °C.
Turning to `N#CCc1cc(Cl)cc(Cl)c1Cl`, the melting point was 60 to 62 °C.
On to `CC(C)SCCOc1ccc(COc2cnn(C(C)(C)C)c(=O)c2Cl)cc1`, for which the melting point lay in the range of 82 to 84.5 °C.
The value for `c1csc(-c2nc3ccc(N4CCNCC4)nn3c2-c2ccncc2)c1` was 217 to 220 °C; that for `CC(C)NC(c1nccn1C)C1(c2ccc(Cl)c(Cl)c2)CCC1` (centres undefined) was 98 to 100 °C; that for `CN(C)CCN1C(=O)C(N)C(=O)N(CC2CCCCC2)c2ccccc21` (centres undefined) was 94 to 95 °C.
The value for `Cc1[nH]cnc1Cc1cccc2c1OC(C)(C)OC2` was 172 to 178 °C; that for `CC(=O)c1cc(C)cc(NC(=O)c2nnnn2Cc2ccccc2)c1O` was 183 to 184 °C.
For the molecule `Nc1ccc(Cl)cc1C(=O)c1cccc(Cl)c1`, the melting point fell in the range of 118 to 119 °C.
The value for `CCOC(=O)c1ncn2c1C1C=CCN1C(=O)c1c(F)cccc1-2` (centres undefined) was 200 to 201 °C.
The value for `CN(c1cccc2cc(C(=O)NCC(C)(CN3CCOCC3)SCc3ccccc3)[nH]c12)S(=O)(=O)c1cccs1` (centres undefined) was 150 to 152 °C.
The value for `C=C(NC(=O)OC(C)(C)C)C(=O)OCc1ccc([N+](=O)[O-])cc1` was 94 to 95 °C; that for `COc1cccc2c(=O)[nH]c(-c3cc(C)c(OCCN4CCCC4)c(C)c3)nc12` was 231 to 232 °C.
`CCN(CC)CCOC(=O)c1cnc2ccn(-c3cccc(Cl)c3)n2c1=O`: the melting point is 153 to 154 °C.
The value for `Nc1ccc(OCc2ccccc2)c(CCCc2ccc(NC(=O)Cc3cccnc3)cc2)c1` was 110 to 112 °C; that for `COc1ccc(CCN2CCc3cc(O)c(OC)cc3C2)cc1` was 170 to 171 °C; that for `O=[N+]([O-])c1ccc(S(=O)(=O)N2CCN(c3ccc(F)cc3)CC2)cc1` was 189 to 191 °C.
Molecule `COc1nc2ccccc2nc1NC(=O)N1CCN(c2c(C)c(C)cc(C)c2C)CC1` returned a melting point of 237 to 239 °C.
Regarding `CC(=O)C(O)C1OC(n2cc(C#N)c(=O)[nH]c2=O)CC1C(C)=O` (centres undefined), the melting point is 160 to 162 °C.
The value for `Nc1nc(SCc2ccccc2)nn1-c1nnc(-c2ccccc2O)s1` was 198 to 201 °C; that for `COc1ccc(CCCNS(=O)(=O)Cc2ccc3[nH]cc(CC#N)c3c2)cc1` was 131 to 133 °C; that for `CCOC(=O)c1cn(Cc2ccccc2)nc1NC(=O)NCc1ccccc1` was 82 to 83 °C.
Molecule `CCOC(=O)c1c(N2CCN(C(=O)c3ccco3)CC2)c2cc(F)cnc2n(Cc2cccc(F)c2)c1=O` showed a melting point of 121 °C.
